# From patent publication US20240315947A1, “COSMETIC COMPOSITION COMPRISING MOLECULAR AGGREGATES OF BILE ACIDS OR BILE ACID SALTS” (SCAI THERAPEUTICS CO., LTD., priority 2021, published 2024)
# Read-outs that look alike come from different tables or passages of the source.
# Tests used:
# 3T3-L1 preadipocytes = experiment: Preadipocyte cytotoxicity (cell counting kit-8); settings: treated for 4 hours
# Procedure: 3T3-L1 preadipocytes were inoculated into a 96 well plate at 5×10^3 per well, grown in medium (high glucose DMEM, 10% bovine calf serum, 1% penicillin/streptomycin) for 16 hours. The drug was prepared to contain 0.04% and 0.08%, respectively, and then treated for 4 hours. After adding 10 μl of Dojingo CK04-11 cell counting kit-8 to each well according to the manual, reacting for 2 hours, the absorbance at 450 nm was measured with a spectrophotometer to compare preadipocyte cytotoxicity.
# [1] = tested on: skin, subcutaneous tissue of the interscapular region; experiment: SD rat histological analysis (H&E, Masson's trichome staining); type: in vivo, SD rats; settings: subcutaneous injection, 500 μL of 1%
# Source text: The interscapular region (back of the neck near the ear) of 10-week-old SD rats (280-350 g) with sufficient subcutaneous adipose tissue was shaved and anesthetized. […].
# Then, tissues (skin, subcutaneous tissue) of the interscapular region were collected, fixed, and subjected to H&E staining and Masson's trichome staining. Tissue changes were investigated through microscopic observation.
# [2] = design: species or system SD rats; settings: rat, in vivo
# Source text: The interscapular region (back of the neck near the ear) of 10-week-old SD rats (280-350 g) with sufficient subcutaneous adipose tissue was shaved and anesthetized.
compound,measurement,setting,value
Sodium deoxycholate [precursor of deoxycholic acid salt],preadipocyte cytotoxicity (comparison between test materials),3T3-L1 preadipocytes; 0.04%,the same
same,survival rate of preadipocytes,3T3-L1 preadipocytes; 0.08%,24.6%
C[C@H](CCC(=O)O)[C@H]1CC[C@H]2[C@@H]3CC[C@@H]4C[C@H](O)CC[C@]4(C)[C@H]3C[C@H](O)[C@]12C [deoxycholic acid],tissue damage (H&E staining),[1],severe tissue damage
same,tissue findings at section creation (Masson's trichome staining),[1],hematoma and edema
same,amount of DCA in the subcutaneous tissue,[2],increased over time
same,amount of DCA in the subcutaneous tissue,[2]; sc,gradually decreased
